For this assay, the target named is T1, DAPK1 (Homo sapiens, UniProt P53355).
T1 construct: purchased Thermo Fisher Scientific (Life Technologies) SelectScreen
The assay can be described thus: SelectScreen Adapta. The class given is biochemical. The method in brief: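 SelectScreen broad panel; activity (Z'LYTE, Adapta) plus binding formats. ATP: Km app for CSF1R Z'LYTE; 10 for CAMK1 Adapta. Readout = % per kinase.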

T1 sequence (P53355 whole entry): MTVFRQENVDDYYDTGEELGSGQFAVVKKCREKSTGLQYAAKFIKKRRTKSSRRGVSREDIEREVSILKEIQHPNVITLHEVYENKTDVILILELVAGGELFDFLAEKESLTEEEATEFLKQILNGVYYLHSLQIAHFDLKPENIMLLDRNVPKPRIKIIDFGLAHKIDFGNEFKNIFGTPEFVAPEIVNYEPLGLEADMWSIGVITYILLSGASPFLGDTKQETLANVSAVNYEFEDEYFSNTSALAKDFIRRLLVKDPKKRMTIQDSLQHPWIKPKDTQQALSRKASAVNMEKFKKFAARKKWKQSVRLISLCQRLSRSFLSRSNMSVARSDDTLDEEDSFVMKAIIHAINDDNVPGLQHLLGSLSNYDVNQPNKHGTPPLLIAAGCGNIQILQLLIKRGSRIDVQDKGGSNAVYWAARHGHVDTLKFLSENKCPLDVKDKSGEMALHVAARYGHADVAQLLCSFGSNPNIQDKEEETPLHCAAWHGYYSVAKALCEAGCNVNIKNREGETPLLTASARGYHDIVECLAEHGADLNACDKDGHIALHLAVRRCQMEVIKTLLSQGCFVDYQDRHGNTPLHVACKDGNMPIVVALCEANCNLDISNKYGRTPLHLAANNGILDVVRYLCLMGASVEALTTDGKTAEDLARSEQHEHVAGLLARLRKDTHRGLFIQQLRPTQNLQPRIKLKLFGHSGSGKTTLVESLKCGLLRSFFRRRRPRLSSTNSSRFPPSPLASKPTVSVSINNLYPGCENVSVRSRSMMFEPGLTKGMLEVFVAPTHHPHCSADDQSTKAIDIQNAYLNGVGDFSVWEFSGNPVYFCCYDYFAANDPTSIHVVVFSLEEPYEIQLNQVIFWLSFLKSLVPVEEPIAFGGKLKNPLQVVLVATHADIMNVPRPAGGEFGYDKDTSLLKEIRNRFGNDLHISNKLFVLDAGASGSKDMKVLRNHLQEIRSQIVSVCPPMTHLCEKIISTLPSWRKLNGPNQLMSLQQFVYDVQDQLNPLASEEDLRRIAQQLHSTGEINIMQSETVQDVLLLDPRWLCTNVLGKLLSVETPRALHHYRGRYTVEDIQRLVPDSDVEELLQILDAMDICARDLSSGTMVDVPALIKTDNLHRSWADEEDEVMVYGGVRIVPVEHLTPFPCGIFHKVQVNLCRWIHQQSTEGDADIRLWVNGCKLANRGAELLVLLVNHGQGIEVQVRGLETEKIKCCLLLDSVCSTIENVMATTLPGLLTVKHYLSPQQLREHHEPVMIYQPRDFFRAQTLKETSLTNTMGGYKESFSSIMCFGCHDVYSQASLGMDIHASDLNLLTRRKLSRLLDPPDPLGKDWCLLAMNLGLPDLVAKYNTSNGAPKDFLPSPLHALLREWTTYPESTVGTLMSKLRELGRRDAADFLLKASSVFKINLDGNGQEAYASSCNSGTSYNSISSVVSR

The compound `CN(C(=O)CN1CCOCC1)c1ccc2sc3c(-c4cccc5c(=O)cc(N6CC7CCC(C6)O7)oc45)cccc3c2c1` [NU5455] displayed an inhibition at 1 µM of 1.6%.

One may read the inhibition as the percentage by which the read-out fell short of the control.

The values are drawn from article PMC6934184, “Selective DNA-PKcs inhibition extends the therapeutic index of localized radiotherapy and chemotherapy” (The Journal of Clinical Investigation, 2019).
